Where two headings read alike, the source gives them in different places.
What was measured:
ER = biological target: T1, ER (Homo sapiens, UniProt P03372); assay: Degradation activities on ER (ELISA) in T47D breast cancer cells; assay type: cell-based; conditions: T47D cells, 24 h, ELISA; for DC50: concentration required to degrade 50% of the target protein; for Dmax: maximum percentage of target protein degraded, read-out: Dmax
T1 construct: T47D breast cancer cells were subcultured in cell culture medium; endogenous in cells; host or cells: T47D breast cancer cells
T1 sequence (P03372 1-595): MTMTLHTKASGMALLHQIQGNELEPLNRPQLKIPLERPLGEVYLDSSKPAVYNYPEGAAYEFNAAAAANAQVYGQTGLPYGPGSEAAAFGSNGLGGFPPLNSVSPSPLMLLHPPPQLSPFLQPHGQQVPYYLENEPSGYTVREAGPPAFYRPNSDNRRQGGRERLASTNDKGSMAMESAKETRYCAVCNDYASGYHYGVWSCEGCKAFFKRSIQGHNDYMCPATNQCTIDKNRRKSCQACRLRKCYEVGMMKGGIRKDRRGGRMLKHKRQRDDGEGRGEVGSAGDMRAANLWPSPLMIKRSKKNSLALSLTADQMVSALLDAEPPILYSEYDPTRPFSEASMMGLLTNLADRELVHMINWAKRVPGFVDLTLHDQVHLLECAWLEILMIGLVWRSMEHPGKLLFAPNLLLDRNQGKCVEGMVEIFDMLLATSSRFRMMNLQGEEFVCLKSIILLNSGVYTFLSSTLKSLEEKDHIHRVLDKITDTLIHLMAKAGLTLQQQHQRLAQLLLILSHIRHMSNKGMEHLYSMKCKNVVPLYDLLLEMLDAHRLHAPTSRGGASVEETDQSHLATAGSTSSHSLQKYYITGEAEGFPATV
Procedure: T47D breast cancer cells were subcultured in cell culture medium, and then the cells in good growth condition were seeded into 96-well plates at 80 µL/well, with 2.5×10^4 cells per well. The cells were incubated in a 37° C., 5% CO2 incubator for 3 days. The drug was prepared into a 10 mM stock solution with dimethyl sulfoxide (DMSO). Prior to use, the stock solution was diluted with cell culture medium to obtain six final concentrations (100 nM, 25 nM, 6.25 nM, 1.56 nM, 0.39 nM, and […]), and gently mixed. Additionally, negative control wells (only containing culture medium) and positive control wells (only containing cells and DMSO) were included. After the cells were incubated in the incubator for 24 h, the cells were rinsed once with ice-cold 1×PBS. […] The plate was sealed with plastic film, and incubated in a 37° C. incubator for 2 h. The film was removed. 200 μL of 1× washing buffer was added to each well, and then the plate was shaken for 5 min. The washing buffer was discarded, and the plate was pat-dried. The plate was washed four times. 100 μL of freshly prepared detection antibody (green) was added to each well of the ELISA plate. The plate was sealed with plastic film, and then incubated in a 37° C. incubator for 1 h. The film was removed, and the detection antibody was discarded. The plate was pat-dried. 200 μL of 1× washing buffer was added to each well, and then the plate was shaken for 5 min. The washing buffer was discarded, and the plate was pat-dried. The plate was washed four times. 100 μL of freshly prepared HRP-labeled secondary antibody (red) was added to each well of the ELISA plate. The plate was sealed with plastic film, and incubated in a 37° C. incubator for 30 min. The film was removed, the secondary antibody was discarded, and the plate was pat-dried, followed by adding 200 μL of 1× washing buffer to each well. The plate was shaken for 5 min, and the washing buffer was discarded before pat-drying the plate. The plate was washed four times. 100 μl of TMB substrate was added to each well of the ELISA plate, followed by incubating in a 37° C. incubator for 5 min. 100 μL of STOP solution was added to each well of the ELISA plate, and the plate was gently shaken for a few seconds. The bottom of each well was wiped with lint-free cloth. Within 30 min after adding the STOP solution, the absorbance was read at 450 nm. […] The data were analyzed using the Dose-response equation in GraphPad Prism8 software to obtain the DC50 and Dmax values, and both of them are important indicators for measuring the degradation activities of compounds on target proteins. […] The Dmax value represents the maximum percentage of target protein that can be degraded by the compound.

[1] = test system: MCF-7 breast cancer cells; assay: Inhibition of proliferation of MCF-7 breast cancer cells (agarose culture, CellTiter-Glo 3D); assay type: cell-based; conditions: MCF-7 cells, 15 days of cultivation, read-out: IC50
Procedure: After 1.6% agarose and 0.7% agarose were sterilized at high temperature, they were cooled to around 50° C., and placed in a 42° C. water bath for later use. MCF-7 breast cancer cells were subcultured in complete cell culture medium, and cells in good growth condition were digested and counted for future use. 50 µL of 1.6% agarose mixed with 2× culture medium at a ratio of 1:1 was spread into the bottom of 96-well plate, and allowed to cool and solidify. 0.7% agarose was mixed with diluted cell suspension in a ratio of 1:1, and then 50 µL of the mixture of gel and cells was added to each well, with 2000 cells for each well; the mixture was allowed to cool and solidify at room temperature. 50 μL of culture medium was added to the plate containing cells, and the plate was placed in a 37° C., 5% CO2 incubator and cultured for 24 h. The drug was prepared into 10 mM stock solution with dimethyl sulfoxide (DMSO). The stock solution was diluted in a ratio of 1:3, to obtain 9 concentration gradients. Then, each concentration of compound solution was further diluted with culture medium in 1:250 (to ensure a DMSO concentration of 0.1% in the culture system). Two replicate wells was set for each concentration. 50 μL of the diluted compound solution was added to the cell culture wells (with final concentrations of 10 μM, 3.3 μM, 1.1 μM, 0.37 μM . . . ). The plate was gently shaken for mixing. Additionally, 3 negative control wells only containing cells and 3 blank control wells only containing culture medium were set up (each of the 6 wells was added with 50 μL of DMSO diluted with culture medium in a ration of 1:250). After 15 days of cultivation, the cell plates and CellTiter-Glo 3D Cell Viability were taken out and equilibrated to room temperature in advance. 80 μL of culture medium were aspirated and discarded from the cell plate, and 120 µL of CellTiter-Glo 3D Cell Viability solution was added to each well. The plates were centrifuged at 1200 rpm/min for 5 min, and then placed in the dark and kept for 25 min. The […] were measured using a multi-function microplate reader. The data were analyzed using the Dose-response-inhibition equation in GraphPad Prism8 software, and the IC50 values were obtained, as shown in Table 3.

DC50 (ER) | Dmax (ER) | IC50 ([1]; Homo sapiens, MCF7, 360 h) | IC50 [1] | Structure (SMILES)
< 10 nM | > 75% | < 10 nM | – | O=C1CCC(N2Cc3cc(N4CCC(N5CC6(CCN(c7ccc([C@@H]8c9ccc(O)cc9OC[C@@H]8c8ccccc8F)cc7)CC6)C5)CC4)ccc3C2=O)C(=O)N1 (stereo partly drawn) [Example 14, 3-(5-(4-(7-(4-((3S, 4R)-3-(2-fluorophenyl)-7-hydroxychroman-4-yl)phenyl)-2,7-diazaspiro[3.5]nonane-2-yl)piperidin-1-yl)-1-oxoisoinodolin-2-yl)pyridine-2,6-dione]
< 10 nM | – | < 10 nM | – | O=C1CCC(N2Cc3cc(N4CC5(CCN(CC6CCN(c7c(F)cc([C@@H]8c9ccc(O)cc9OC[C@@H]8c8cccc(F)c8F)cc7F)CC6)CC5)C4)ccc3C2=O)C(=O)N1 (stereo partly drawn) [Example 49, 3-(5-(7-((1-(4-((3S, 4R)-3-(2,3-difluorophenyl)-7-hydroxychroman-4-yl)-2,6-difluorophenyl)piperidin-4-yl)methyl)-2,7-diazaspiro[3.5]nonane-2-yl)-1-oxoisoinodolin-2-yl)piperidin-2,6-one]
< 10 nM | – | – | < 10 nM | O=C1CCC(N2Cc3cc(N4CC5(CCN(CC6CCN(c7c(F)cc([C@@H]8c9ccc(O)cc9OC[C@@H]8c8ccccc8F)cc7F)CC6)CC5)C4)ccc3C2=O)C(=O)N1 (stereo partly drawn) [Example 50, 3-(5-(7-((1-(4-((3S,4R)-3-(2-fluorophenyl)-7-hydroxychroman-4-yl)-2,6-difluorophenyl)piperidin-4-yl)methyl)-2,7-diazaspiro[3.5]nonane-2-yl)-1-oxoisoinodolin-2-yl)piperidin-2,6-one]
> 100 nM | < 50% | > 50 nM | – | O=C1CC[C@@H](N2Cc3cc(N4CC5(CCN(CC6CCN(c7ccc([C@@H]8c9ccc(O)cc9OC[C@@H]8c8c(F)cccc8F)cc7F)CC6)CC5)C4)ccc3C2=O)C(=O)N1 [Example 74, (R)-3-(5-(7-((1-(4-((3S,4R)-3-(2,6-difluorophenyl)-7-hydroxychroman-4-yl)-2-fluorophenyl)piperidin-4-yl)methyl)-2,7-diazaspiro[3.5]nonane-2-yl)-1-oxoisoinodolin-2-yl)piperidin-2,6-dione]
< 10 nM | 50 to 75% | 11 to 50 nM | – | O=C1CCC(N2Cc3cc(N4CC5(CCN(CC6CCN(c7ccc([C@@H]8c9ccc(O)cc9OC[C@@H]8c8ccc(F)cc8)cc7)CC6)CC5)C4)ccc3C2=O)C(=O)N1 (stereo partly drawn) [Example 9, 3-(5-(7-((1-(4-(cis-3-(4-fluorophenyl)-7-hydroxyltryptophane-4-yl)phenyl)piperidin-4-yl)methyl)-2,7-diazaspiro[3.5]nonane-2-yl)-1-oxoisoinodolin-2-yl)piperidin-2,6-dione]
– | – | > 50 nM | – | O=C1CCC(NC(=O)c2ccc(N3CC4(CCN(CC5CCN(c6ccc([C@@H]7c8ccc(O)cc8OC[C@@H]7c7ccccc7F)cc6)CC5)CC4)C3)cc2F)C(=O)N1 (relative stereo) [Example 103, N-(2,6-dioxopiperidin-3-yl)-2-fluoro-4-(7-((1-(4-(cis-3-(2-fluorophenyl)-7-hydroxychroman-4-yl)phenyl)piperidin-4-yl)methyl)-2,7-diazaspiro[3.5]nonane-2-yl)benzamide]
< 10 nM | > 75% | < 10 nM | – | O=C1CC[C@H](N2Cc3cc(N4CC5(CCN(CC6CCN(c7ccc([C@@H]8c9ccc(O)cc9OC[C@@H]8c8c(F)cccc8F)cc7F)CC6)CC5)C4)ccc3C2=O)C(=O)N1 [Example 75, (S)-3-(5-(7-((1-(4-((3S,4R)-3-(2,6-difluorophenyl)-7-hydroxychroman-4-yl)-2-fluorophenyl)piperidin-4-yl)methyl)-2,7-diazaspiro[3.5]nonane-2-yl)-1-oxoisoinodolin-2-yl)piperidin-2,6-dione]
> 100 nM | < 50% | > 50 nM | – | O=C1CC[C@@H](N2Cc3cc(N4CC5(CCN(CC6CCN(c7c(F)cc([C@@H]8c9ccc(O)cc9OC[C@@H]8c8c(F)cccc8F)cc7F)CC6)CC5)C4)ccc3C2=O)C(=O)N1 [Example 44]
– | – | > 50 nM | – | O=C1CCC(N2Cc3cc(N4CC5(CCN(CC6CCN(c7ccc([C@@H]8c9ccc(C(=O)O)cc9OC[C@@H]8c8ccccc8F)cc7)CC6)CC5)C4)ccc3C2=O)C(=O)N1 (stereo partly drawn) [Example 102, cis-4-(4-(4-((2-(2-(2,6-dioxopiperidin-3-yl)-1-oxoisoinodolin-5-yl)-2,7-diazaspiro[3.5]nonan-7-yl)methyl)piperidin-1-yl)phenyl)-3-(2-fluorophenyl)chroman-7-formic acid]
– | – | < 10 nM | – | O=C1CC[C@H](N2Cc3cc(N4CC5(CCN(CC6CCN(c7ccc([C@@H]8c9ccc(O)cc9OC[C@@H]8c8c(F)cccc8F)cc7)CC6)CC5)C4)ccc3C2=O)C(=O)N1 [Example 78, (S)-3-(6-(7-((1-(4-((3S,4R)-3-(2,6-difluorophenyl)-7-hydroxychroman-4-yl)phenyl)piperidin-4-yl)methyl)-2,7-diazaspiro[3.5]nonane-2-yl)-1-oxoisoinodolin-2-yl)piperidin-2,6-dione]
– | – | 11 to 50 nM | – | [2H]C1(N2Cc3cc(N4CC5(CCN(CC6CCN(c7ccc([C@@H]8c9ccc(O)cc9OC[C@@H]8c8c(F)cccc8F)cc7F)CC6)CC5)C4)ccc3C2=O)CCC(=O)NC1=O (stereo partly drawn) [Example 93, 3-deutero-3-(5-(7-((1-(4-((3S,4R)-3-(2,6-difluorophenyl)-7-hydroxychroman-4-yl)-2-fluorophenyl)piperidin-4-yl)methyl)-2,7-diazaspiro[3.5]nonane-2-yl)-1-oxoisoinodolin-2-yl)piperidin-2,6-dione]
– | – | 11 to 50 nM | – | O=C1CCC(N2Cc3cc(N4CC5(CCN(CC6CCN(c7ccc([C@@H]8c9ccc(B(O)O)cc9OC[C@@H]8c8ccccc8F)cc7)CC6)CC5)C4)ccc3C2=O)C(=O)N1 (stereo partly drawn) [Example 101, (cis-4-(4-(4-((2-(2-(2,6-dioxopiperidin-3-yl)-1-oxoisoinodolin-5-yl)-2,7-diazaspiro[3.5]nonan-7-yl)methyl)piperidin-1-yl)phenyl)-3-(2-fluorophenyl)pyran-7-yl)boric acid]

From US20260258039A1, “AROMATIC COMPOUND, METHOD FOR PREPARING SAME, AND USE THEREOF IN PREPARATION OF ESTROGEN RECEPTOR DEGRADER” (Hinova Pharmaceuticals Inc., priority 2022, published 2026)
